From PubChem BioAssay (NCI)
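Protocol summary: plate cells (96-well), add compound at 5 concentrations, incubate 48 h, interpolate endpoints linearly. Here, GI50 denotes the concentration required for 50% inhibition of growth. TGI: total growth inhibition.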

Assays:
Test in all cases: DTP human tumour cell line panel, 48 h
A498 renal = test system: A498 renal
HCT-15 colon = test system: HCT-15 colon
HOP-92 NSCLC = test system: HOP-92 NSCLC
PC-3 prostate = test system: PC-3 prostate
RPMI-8226 leukemia = test system: RPMI-8226 leukemia
SF-295 CNS = test system: SF-295 CNS
SK-MEL-2 melanoma = test system: SK-MEL-2 melanoma
SN12C renal = test system: SN12C renal
T-47D breast = test system: T-47D breast
OVCAR-4 ovarian = test system: OVCAR-4 ovarian

Row | Compound | TGI (A498 renal) | TGI (HCT-15 colon) | TGI (HOP-92 NSCLC) | TGI (PC-3 prostate) | TGI (RPMI-8226 leukemia) | TGI (SF-295 CNS) | TGI (SK-MEL-2 melanoma) | TGI (SN12C renal) | TGI (T-47D breast) | TGI (OVCAR-4 ovarian) | GI50 (A498 renal) | GI50 (HOP-92 NSCLC) | GI50 (OVCAR-4 ovarian) | GI50 (PC-3 prostate) | GI50 (SF-295 CNS) | GI50 (SK-MEL-2 melanoma) | GI50 (SN12C renal)
1 | Cc1cn(CC2=NC3CCCCC3N2)c(=O)[nH]c1=O (stereo unspecified) | > 100 µM | > 100 µM | > 100 µM | > 100 µM | > 100 µM | > 100 µM | > 100 µM | > 100 µM | > 100 µM | – | – | – | – | – | – | – | –
2 | CC(NC(=O)C(N)CC(=O)O)C(=O)OC12CC3CC(CC(C3)C1)C2 (stereo unspecified) | – | > 100 µM | > 100 µM | > 100 µM | > 100 µM | – | > 100 µM | > 100 µM | – | > 100 µM | – | – | – | – | – | – | –
3 | CNCCCn1c2c(c3ccc(Cl)cc3c1=O)C(=O)c1cc(OC)cnc1-2 | 9.07 µM | – | 2.75 µM | 2.33 µM | – | 1.38 µM | 33.4 µM | 3.04 µM | – | 2.93 µM | 0.531 µM | 1.19 µM | 1.27 µM | 1.02 µM | 0.132 µM | 13.2 µM | 1.18 µM
4 | O=[N+]([O-])c1cnc(N(CCO)CCO)s1 | > 100 µM | > 100 µM | > 100 µM | > 100 µM | – | > 100 µM | > 100 µM | > 100 µM | > 100 µM | > 100 µM | – | – | – | – | – | – | –
5 | C=C[C@]1(C)CC(=O)C(C(C)C=O)[C@]12C(=O)Oc1cccc(C)c1C2=O (stereo partly specified) | 71.1 µM | 28.3 µM | – | 26.3 µM | > 100 µM | 28.9 µM | 32.4 µM | 30.3 µM | 34.1 µM | 35.5 µM | – | – | – | – | – | – | –
6 | CN1CN(c2ccccc2)C2(CCN(C3Nc4ccccc4O3)CC2)C1=O (stereo unspecified) | 42.1 µM | 28.8 µM | – | 45.2 µM | 58 µM | 33.6 µM | 28.3 µM | 34.7 µM | 58.8 µM | – | – | – | – | – | – | – | –
7 | Cc1ccc(C(=O)O)c(/C=C2\Cc3cc(C)cc(C)c3C2=O)c1 | > 100 µM | > 100 µM | – | > 100 µM | > 100 µM | > 100 µM | > 100 µM | > 100 µM | > 100 µM | – | – | – | – | – | – | – | –
8 | COc1ccc(-c2[nH]c(-c3ccc(OC)cc3)c(-c3ccccn3)c2-c2ccccn2)cc1 | > 100 µM | > 100 µM | > 100 µM | > 100 µM | 69.5 µM | > 100 µM | – | > 100 µM | > 100 µM | – | – | – | – | – | – | – | –
9 | Cc1nn(C(=O)c2ccc(Cl)cc2)c2c1C(c1ccccc1O)SC(N)=N2 (stereo unspecified) | – | > 10 µM | > 10 µM | > 10 µM | > 10 µM | > 10 µM | > 10 µM | > 10 µM | > 10 µM | > 10 µM | – | – | – | – | – | – | –
10 | COc1ccc(C(=O)N2CCN(c3ccc4c(c3)OCC(=O)N4)CC2)cc1OC | – | > 100 µM | > 100 µM | > 100 µM | > 100 µM | > 100 µM | > 100 µM | > 100 µM | > 100 µM | > 100 µM | – | – | – | – | – | – | –
11 | COc1ccc2nc3c(C)cc4ccccc4n3c2c1 | 65.4 µM | > 100 µM | > 100 µM | > 100 µM | > 100 µM | > 100 µM | – | > 100 µM | > 100 µM | – | – | – | – | – | – | – | –
12 | Cc1ccc(S(=O)(=O)NN=C2C(C)(C)CC2(C)C)cc1 | > 100 µM | > 100 µM | > 100 µM | > 100 µM | – | > 100 µM | > 100 µM | > 100 µM | > 100 µM | > 100 µM | – | – | – | – | – | – | –
13 | CC1OC(OC2C(OC(=O)[C@]34CCC(C)(C)CC3C3=CCC5[C@@]6(C)C[C@H](O)[C@H](OC7OC(COC8OC(CO)C(O)C(O)C8O)C(O)C(O)C7O)[C@@](C)(C(=O)O)C6CC[C@@]5(C)C3(C)CC4)OCC(O)C2O)C(O)C(O)C1OC1OCC(O)C(O)C1O (stereo partly specified) | > 100 µM | > 100 µM | > 100 µM | – | > 100 µM | > 100 µM | > 100 µM | > 100 µM | – | – | – | – | – | – | – | – | –
14 | O=C(CSc1nnc(Cc2ccccc2)o1)Nc1ccc(Cl)cc1[N+](=O)[O-] | – | 32.2 µM | – | – | 49.6 µM | 34.2 µM | 29.8 µM | 31.4 µM | – | 33.9 µM | – | – | – | – | – | – | –
15 | O=[N+]([O-])c1ccc(Cc2nc3cc4ccccc4cc3[nH]2)cc1C(F)(F)F | 33.5 µM | > 100 µM | 41.1 µM | > 100 µM | – | 29 µM | 44.4 µM | 38 µM | 21.6 µM | 46.8 µM | – | – | – | – | – | – | –
16 | CCOC(=O)c1cc(C2=CCNC2=O)c(-c2cc(C)no2)[nH]1 | > 100 µM | > 100 µM | – | > 100 µM | > 100 µM | > 100 µM | > 100 µM | > 100 µM | > 100 µM | > 100 µM | – | – | – | – | – | – | –
17 | CC(C)(C)CNCCCNc1ccc(Cl)cc1 | 51.5 µM | > 100 µM | 79.4 µM | > 100 µM | 55.4 µM | 69.1 µM | > 100 µM | > 100 µM | – | > 100 µM | – | – | – | – | – | – | –
18 | Cc1ccc(N=NN(C)C(C)C(O)Cc2ccccc2)cc1 (stereo unspecified) | – | > 100 µM | – | > 100 µM | > 100 µM | > 100 µM | > 100 µM | > 100 µM | 88.5 µM | > 100 µM | – | – | – | – | – | – | –
19 | Cc1c2oc3c(C)cnc(C(=O)NC4C(=O)NC(C(C)C)C(=O)N5CCCC5C(=O)N(C)CC(=O)N(C)C(C(C)C)C(=O)OC4C)c3nc-2c(C(=O)NC2C(=O)NC(C(C)C)C(=O)N3CCCC3C(=O)N(C)CC(=O)N(C)C(C(C)C)C(=O)OC2C)c(N)c1=O (stereo unspecified) | 29.8 µM | > 75 µM | 36 µM | > 47.1 µM | – | 39.9 µM | 10.4 µM | > 70.1 µM | > 53.4 µM | 73.5 µM | – | – | – | – | – | – | –
20 | Cc1ccc(NC(=O)CC(=O)N2N=C(N3CCCCC3)CC2c2ccccc2)cc1 (stereo unspecified) | > 100 µM | > 100 µM | > 100 µM | > 100 µM | – | > 100 µM | > 100 µM | > 100 µM | > 100 µM | > 100 µM | – | – | – | – | – | – | –
21 | Cc1n[nH]c(=O)n1Nc1ccccc1 | – | > 100 µM | > 100 µM | > 100 µM | > 100 µM | > 100 µM | – | > 100 µM | > 100 µM | > 100 µM | – | – | – | – | – | – | –
22 | C=CCOC1CC(n2cnc3c(N)ncnc32)OC1CO (stereo unspecified) | – | > 100 µM | > 100 µM | – | > 100 µM | > 100 µM | > 100 µM | – | – | > 100 µM | – | – | – | – | – | – | –
23 | CC1(c2nc3ccccc3[nH]2)CCC(C#N)C(C)(C)O1 (stereo unspecified) | – | > 100 µM | > 100 µM | > 100 µM | > 100 µM | > 100 µM | > 100 µM | > 100 µM | > 100 µM | > 100 µM | – | – | – | – | – | – | –
